Experimental data: the supplement of paper PMC6045584
± gives the standard deviation of the averaged measurements.

What was measured:
[1] = compound: CC1(C)CC(=O)c2c(C(F)(F)F)nn(-c3ccc(C(N)=O)c(N[C@H]4CC[C@H](OC(=O)CN)CC4)c3)c2C1 [SNX-5422]; test: surviving fraction relative to DMSO-only wells; higher = less growth inhibition; settings: exposure time: 5 days
Outline: (§1)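 Each tumour cell line was screened three times, and only lines with replicate Pearson r >0.7 and median Z' >0.3 were kept. Cells in log phase were seeded at 250–500 per well in 384-well plates, left 24 hours, then exposed continuously for five days to inhibitors at 0.5, 1, 5, 10, 50, 100, 500 and 1000 nM. Viability was read as CellTiter-Glo luminescence, with surviving fraction normalised to the median of DMSO-only wells.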

[2] = compound: Cn1cc(C2=Nc3cc(NC(=O)C(N)C4CCCCC4)cc4c3C2=CNNC4=O)cn1; test: as above; settings: exposure time: 5 days
Outline: as §1

Test System | surviving fraction ([1]; 0.5 nM) | surviving fraction ([1]; 1 nM) | surviving fraction ([1]; 5 nM) | surviving fraction ([1]; 10 nM) | surviving fraction ([1]; 50 nM) | surviving fraction ([1]; 100 nM) | surviving fraction ([1]; 500 nM) | surviving fraction ([1]; 1000 nM) | surviving fraction ([2]; 0.5 nM) | surviving fraction ([2]; 1 nM) | surviving fraction ([2]; 5 nM) | surviving fraction ([2]; 10 nM) | surviving fraction ([2]; 50 nM) | surviving fraction ([2]; 100 nM) | surviving fraction ([2]; 500 nM) | surviving fraction ([2]; 1000 nM)
CAL120 BREAST | 0.993 ± 0.019 | 0.946 ± 0.034 | 0.962 ± 0.057 | 0.875 ± 0.057 | 0.149 ± 0.013 | 0.132 ± 0.0094 | 0.083 ± 0.0092 | 0.0862 ± 0.0052 | 0.966 ± 0.012 | 1.02 ± 0.019 | 1.01 ± 0.013 | 1.01 ± 0.038 | 0.966 ± 0.029 | 0.856 ± 0.044 | 0.375 ± 0.02 | 0.24 ± 0.023
HCT15 LARGE INTESTINE | 1.05 ± 0.018 | 1.03 ± 0.029 | 1.06 ± 0.051 | 1.09 ± 0.022 | 0.77 ± 0.12 | 0.303 ± 0.03 | 0.0797 ± 0.0015 | 0.074 ± 0.009 | 0.997 ± 0.079 | 1.05 ± 0.034 | 1.07 ± 0.0081 | 1.05 ± 0.037 | 1 ± 0.063 | 1.05 ± 0.045 | 1 ± 0.031 | 0.951 ± 0.028
HCC38 BREAST | 1.19 ± 0.18 | 1.09 ± 0.094 | 1.06 ± 0.19 | 1.01 ± 0.15 | 0.219 ± 0.053 | 0.26 ± 0.027 | 0.0927 ± 0.0074 | 0.0897 ± 0.017 | 1 ± 0.33 | 1.06 ± 0.23 | 0.978 ± 0.3 | 0.92 ± 0.11 | 0.114 ± 0.036 | 0.031 ± 0.0079 | 0.027 ± 0.0027 | 0.021 ± 0.0017
CAL51 BREAST | 0.902 ± 0.075 | 0.973 ± 0.016 | 1.02 ± 0.036 | 1 ± 0.034 | 0.261 ± 0.036 | 0.077 ± 0.0036 | 0.0237 ± 0.00058 | 0.0263 ± 0.0015 | 0.889 ± 0.037 | 0.973 ± 0.041 | 0.945 ± 0.052 | 0.903 ± 0.037 | 0.962 ± 0.079 | 0.875 ± 0.048 | 0.484 ± 0.0085 | 0.276 ± 0.026
COLO320DM LARGE INTESTINE | 1.11 ± 0.05 | 1.25 ± 0.046 | 1.24 ± 0.27 | 1.13 ± 0.12 | 0.581 ± 0.029 | 0.309 ± 0.035 | 0.113 ± 0.0058 | 0.103 ± 0.009 | 0.957 ± 0.12 | 1.09 ± 0.15 | 0.97 ± 0.076 | 1.08 ± 0.11 | 1.01 ± 0.23 | 0.954 ± 0.098 | 0.877 ± 0.13 | 0.664 ± 0.053
SKBR3 BREAST | 0.866 ± 0.051 | 0.932 ± 0.25 | 0.93 ± 0.068 | 0.841 ± 0.051 | 0.439 ± 0.024 | 0.432 ± 0.035 | 0.192 ± 0.01 | 0.181 ± 0.002 | 0.927 ± 0.058 | 0.948 ± 0.086 | 0.989 ± 0.088 | 1 ± 0.073 | 0.736 ± 0.056 | 0.459 ± 0.064 | 0.206 ± 0.011 | 0.224 ± 0.024
HMLE3 BREAST | 0.975 ± 0.02 | 1 ± 0.054 | 0.999 ± 0.074 | 1.09 ± 0.032 | 0.0933 ± 0.011 | 0.0567 ± 0.0045 | 0.0233 ± 0.0015 | 0.027 ± 0.001 | 1.02 ± 0.013 | 0.984 ± 0.069 | 1.01 ± 0.069 | 1.05 ± 0.1 | 0.928 ± 0.015 | 0.924 ± 0.05 | 0.319 ± 0.049 | 0.0807 ± 0.0095
HMT3552 BREAST | 1.04 | 1.05 | 1.12 | 1.08 | 0.171 | 0.106 | 0.082 | 0.079 | 0.92 | 1.07 | 1.02 | 0.936 | 0.999 | 1.03 | 0.176 | 0.097
SNU475 LIVER | 1.024 ± 0.0066 | 1.05 ± 0.045 | 1.06 ± 0.016 | 1.01 ± 0.068 | 0.565 ± 0.033 | 0.358 ± 0.011 | 0.245 ± 0.014 | 0.234 ± 0.012 | 0.965 ± 0.028 | 0.967 ± 0.053 | 0.987 ± 0.013 | 1.01 ± 0.02 | 0.892 ± 0.038 | 0.898 ± 0.046 | 0.731 ± 0.034 | 0.514 ± 0.082
OS25HAL BONE | 0.9827 ± 0.0029 | 1.004 ± 0.0087 | 1.03 ± 0.019 | 0.998 ± 0.036 | 0.789 ± 0.12 | 0.257 ± 0.031 | 0.13 ± 0.018 | 0.132 ± 0.023 | 1.014 ± 0.01 | 1.03 ± 0.042 | 1.005 ± 0.0044 | 1.012 ± 0.0078 | 0.978 ± 0.045 | 0.984 ± 0.012 | 0.0757 ± 0.017 | 0.0387 ± 0.0011
SG43 HEADNECK | 0.971 ± 0.16 | 1.26 ± 0.33 | 0.911 ± 0.033 | 0.865 ± 0.13 | 0.205 ± 0.085 | 0.033 ± 0.004 | 0.0307 ± 0.019 | 0.037 ± 0.003 | 1.08 ± 0.17 | 0.969 ± 0.1 | 0.929 ± 0.19 | 1.01 ± 0.37 | 1.11 ± 0.21 | 1.06 ± 0.15 | 0.888 ± 0.098 | 0.968 ± 0.097
PCI30 HEADNECK | 1.08 ± 0.073 | 1.06 ± 0.086 | 1.13 ± 0.041 | 1.17 ± 0.14 | 0.716 ± 0.05 | 0.316 ± 0.065 | 0.0417 ± 0.0046 | 0.039 ± 0.001 | 0.977 ± 0.021 | 0.929 ± 0.027 | 0.994 ± 0.051 | 0.945 ± 0.014 | 0.913 ± 0.029 | 0.668 ± 0.039 | 0.365 ± 0.025 | 0.333 ± 0.012
SYO1 SYNOVIAL | 1.03 ± 0.031 | 0.993 ± 0.089 | 1.02 ± 0.016 | 0.846 ± 0.059 | 0.122 ± 0.049 | 0.0776 ± 0.021 | 0.0327 ± 0.0032 | 0.0335 ± 0.0013 | 0.977 ± 0.022 | 0.96 ± 0.026 | 0.924 ± 0.04 | 0.897 ± 0.036 | 0.441 ± 0.02 | 0.18 ± 0.051 | 0.0432 ± 0.008 | 0.042 ± 0.0055
CHLA90 AUTONOMIC GANGLIA | 0.995 ± 0.028 | 1.07 ± 0.075 | 1.04 ± 0.041 | 1.026 ± 0.0046 | 0.251 ± 0.028 | 0.227 ± 0.029 | 0.129 ± 0.0096 | 0.141 ± 0.0081 | 1.01 ± 0.025 | 1.07 ± 0.07 | 0.956 ± 0.057 | 0.992 ± 0.023 | 0.772 ± 0.03 | 0.557 ± 0.04 | 0.101 ± 0.0068 | 0.0843 ± 0.011
MFM223 BREAST | 1.16 ± 0.032 | 1.1 ± 0.029 | 1.06 ± 0.025 | 1.08 ± 0.074 | 0.254 ± 0.014 | 0.152 ± 0.016 | 0.111 ± 0.0051 | 0.116 ± 0.0013 | 1.15 ± 0.029 | 1.1 ± 0.012 | 1.09 ± 0.11 | 1.05 ± 0.069 | 0.748 ± 0.047 | 0.408 ± 0.036 | 0.226 ± 0.018 | 0.193 ± 0.025
